One assay relates to HBV DNA replication. Description: Inhibition experiment on HBV virus replication (HepG 2,2,15 cells, supernatant HBV DNA by qPCR). Type of assay: cell-based. The conditions noted are these: Hepatitis B virus, HepG2.2.15, 10 days treatment, supernatant HBV DNA on day 11. An excerpt:
(§1) The chromosomal integration of HepG2,2,15 cells (SELLS, PNAS, 1987 and SELLS, JV, 1988) has a complete HBV genome and stably expresses viral RNA and viral proteins. HepG2,2,15 cells are capable of secreting mature hepatitis B virus particles and HBsAg into the culture medium. Virus particles DNA and HBsAg secreted by HepG 2,2,15 cells can be quantified by qPCR and ELISA, and the effects of compounds on viral replication and HBsAg secretion can be detected.
HepG 2,2,15 cells were inoculated with 8,000 per cell to 96-well cell culture plates in duplicate, and were cultured for 3 days until the cells grew to full-hole. Cells were treated with 4-fold serial dilutions of compounds for 10 days, and were given once every other day. The final concentration of DMSO in all pores was 0.5% and DMSO was used as a drug-free control. The supernatant was collected for quantitative detection of HBV DNA on day 11.
Viral genomic DNA was detected by qPCR method, and HBV primers were as follows: […]
The SYBR Premix Ex Taq D-Takara DRR081S kit was used, and 1 μL of cell culture supernatant was used as a template. A standard curve was made using a plasmid containing the HBV genome, and the viral copy number was calculated using the standard curve. Concentration-virus copy number was processed using Graphpad Prism 5 software, and IC50 of compounds inhibiting virus replication was calculated by four-parameter nonlinear regression model.

In another assay the test system is HBsAg secretion. Description: Inhibition experiment on HBsAg secretion (HepG 2,2,15 cells, ELISA). In kind it is cell-based. The conditions noted are these: Hepatitis B virus, HepG2.2.15, read-out: HBsAg IC50.
Source text: as §1
HepG 2,2,15 cells were inoculated with 8,000 per cell to 96-well cell culture plates in duplicate, and were cultured for 3 days until the cells grew to full-hole. Cells were treated with 4-fold serial dilutions of compounds for 10 days, and were given once every other day. The final concentration of DMSO in all pores was 0.5% and DMSO was used as a drug-free control. The supernatant was collected for quantitative detection of HBsAg on day 11.
The level of HBsAg secreted by the cells after treatment of the compound was detected by ELISA method, and the method used a hepatitis B surface antigen diagnostic kit (Shanghai Kehua Biotech Co., Ltd. S10910113). 25 μL of the supernatant to be assayed (PBS was diluted to 75 μL) was added to per well in the ELISA plate, and the kit positive control and negative control were set. The ELIS A plate was blocked with a cover paper and incubated at 37° C. for 60 minutes. The ELISA plate was taken out, and the cover paper was teared off, and 50 μL of enzyme conjugate was added to each well. The ELISA plate was oscillated on the shaker for 10 seconds, blocked with a cover paper and incubated at 37° C. for 30 minutes. The ELISA plate was taken out, the cover paper was teared off, and the ELISA plate was washed 5 times: each time the liquid in the hole was discarded, and the washing liquid was filled into the holes, left to stand for 60 seconds, dried, and the liquid residue was patted to dry on the absorbent paper. A freshly prepared mixture of Developer A and Developer B was added to all wells immediately after washing: 100 μL per well. The ELISA plate was oscillated on the shaker for 10 seconds, blocked with a cover paper and incubated at 37° C. for 30 minutes. 50 μL of stop solution was added to all wells. Absorbance was read on the Envision plate reader at a wavelength of 450 nm.
Concentration-HBsAg OD450 was processed using Graphpad Prism 5 software, and IC50 of compounds inhibiting against HBsAg secretion was calculated by four-parameter nonlinear regression model.

The source of these data is US11447498B2, “Fused tetracyclic compounds and uses thereof in medicine” (SUNSHINE LAKE PHARMA CO., LTD., priority 2018, dated 2022).

Broadly, the IC50 is the concentration that gives 50% inhibition.

As to `CC(C)C1Cc2cc(-c3ccco3)c3c(c2-c2cc(=O)c(C(=O)O)cn21)CCO3` (stereo not drawn) [Example 1, 4-(Furan-2-yl)-7-isopropyl-11-oxo-2,6,7,11-tetrahydro-1H-furo[2,3-h]pyrido[2,1-a]isoquinoline-10-carboxylic Acid], the IC50 in the assay with HBV DNA replication turned out to be 2.36 nM; in the assay with HBsAg secretion, 4.21 nM.

With `CC(C)C1Cc2cc(-c3cccs3)c3c(c2-c2cc(=O)c(C(=O)O)cn21)CCO3` (stereo not drawn) [Example 11, 7-Isopropyl-11-oxo-4-(thiophen-2-yl)-2,6,7,11-tetrahydro-1H-furo[2,3-h]pyrido[2,1-a]isoquinoline-10-carboxylic Acid], the IC50 is 0.78 nM with HBV DNA replication and 0.92 nM in the assay with HBsAg secretion.

As to `CC(C)C1Cc2cc(-c3cnn(C4CCC4)c3)c3c(c2-c2cc(=O)c(C(=O)O)cn21)CCO3` (stereo not drawn) [Example 33, 4-(1-Cyclobutyl-1H-pyrazol-4-yl)-7-isopropyl-11-oxo-2,6,7,11-tetrahydro-1H-furo[2,3-h]pyrido[2,1-a]isoquinoline-10-carboxylic Acid], the figures for the IC50 with HBV DNA replication and with HBsAg secretion were 1.23 nM and 1.36 nM, respectively. In the assay with HBV DNA replication, `CC(C)C1Cc2cc(OCCOC3CC3)c3c(c2-c2cc(=O)c(C(=O)O)cn21)CCO3` (stereo not drawn) [Example 4, 4-(2-Cyclopropoxyethoxy)-7-isopropyl-11-oxo-2,6,7,11-tetrahydro-1H-furo [2,3-h]pyrido[2,1-a]isoquinoline-10-carboxylic Acid] showed an IC50 of 3.84 nM. Consider `CC(C)C1Cc2cc(-c3ccncc3)c3c(c2-c2cc(=O)c(C(=O)O)cn21)CCO3` (stereo not drawn) [Example 29, 7-Isopropyl-11-oxo-4-(pyridine-4-yl)-2,6,7,11-tetrahydro-1H-furo[2,3-h]pyrido [2,1-a]isoquinoline-10-carboxylic Acid], for which the results for the IC50 in the assay with HBV DNA replication and in the assay on HBsAg secretion were 0.97 nM and 2.64 nM, respectively. For `CC(C)[C@@H]1Cc2cc(OCCC3CC3)c3c(c2-c2cc(=O)c(C(=O)O)cn21)CCO3` [Example 3A, (S)-4-(2-Cyclopropylethoxy)-7-isopropyl-11-oxo-2,6,7,11-tetrahydro-1H-furo [2,3-h]pyrido[2,1-a]isoquinoline-10-carboxylic Acid], the IC50 in the assay with HBsAg secretion is 0.76 nM. As for `CC(C)n1cc(-c2cc3c(c4c2OCC4)-c2cc(=O)c(C(=O)O)cn2N2C3CCC2(C)C)cn1` (stereo not drawn) [Example 14, 5-(1-Isopropyl-1H-pyrazol-4-yl)-1,1-dimethyl-10-oxo-2,3,3a,7,8,10-hexahydro-1H-furo[3,2-f]pyrido[1,2-c]pyrrolo[2,1-a]phthalazine-11-carboxylic Acid], the IC50 with HBV DNA replication was under 0.24 nM; in the assay with HBsAg secretion, 0.38 nM. In the assay on HBV DNA replication, `COCCCOc1cc2c(c3c1OCC3)-c1cc(=O)c(C(=O)O)cn1N(C(C)C)C2` [Example 16, 7-Isopropyl-4-(3-methoxypropoxy)-11-oxo-2,6,7,11-tetrahydro-1H-furo[2,3-h]pyrido[2,1-a]phthalazine-10-carboxylic Acid] showed an IC50 of 2.49 nM. Take `CC(C)C1Cc2cc(-c3cnn(C4COC4)c3)c3c(c2-c2cc(=O)c(C(=O)O)cn21)CCO3` (stereo not drawn) [Example 35, 7-Isopropyl-4-(1-(oxetan-3-yl)-1H-pyrazol-4-yl)-11-oxo-2,6,7,11-tetra hydro-1H-furo[2,3-h]pyrido[2,1-a]isoquinoline-10-carboxylic Acid]: the IC50 in the assay with HBV DNA replication was 2.35 nM; with HBsAg secretion, 3.29 nM. The corresponding values for `CC(C)C1Cc2cc(-c3ccc(-c4ccccc4)cc3)c3c(c2-c2cc(=O)c(C(=O)O)cn21)CCO3` (stereo not drawn) [Example 25, 4-([1,1′-Biphenyl]-4-yl)-7-isopropyl-11-oxo-2,6,7,11-tetrahydro-1H-furo[2,3-h]pyrido[2,1-a]isoquinoline-10-carboxylic Acid] are 0.72 nM and 1.4 nM. The like results for `CC(C)C1Cc2cc(-c3nccs3)c3c(c2-c2cc(=O)c(C(=O)O)cn21)CCO3` (stereo not drawn) [Example 8, 7-isopropyl-11-oxo-4-(thiazol-2-yl)-2,6,7,11-tetrahydro-1H-furo[2,3-h]pyrido [2,1-a]isoquinoline-10-carboxylic Acid] were, in that order, 0.52 nM and 1.63 nM.

Regarding `COc1cccc(-c2cc3c(c4c2OCC4)-c2cc(=O)c(C(=O)O)cn2C(C(C)C)C3)c1` (stereo not drawn) [Example 27, 7-Isopropyl-4-(3-methoxyphenyl)-11-oxo-2,6,7,11-tetrahydro-1H-furo[2,3-h]pyrido[2,1-a]isoquinoline-10-carboxylic Acid], the IC50 with HBV DNA replication was determined as 2.54 nM; with HBsAg secretion it was 4.65 nM.

Consider `COCCCOc1cc2c(c3c1OC(C)(C)C3)-c1cc(=O)c(C(=O)O)cn1C(C(C)C)C2` (stereo not drawn) [Example 39, 7-Isopropyl-4-(3-methoxypropoxy)-2,2-dimethyl-11-oxo-2,6,7,11-tetrahydro-1H-furo[2,3h]pyrido[2,1-a]isoquinoline-10-carboxylic Acid], for which the IC50 in the assay with HBV DNA replication came to 1.65 nM; in the assay with HBsAg secretion it was 0.91 nM.

In the case of `COc1ccc(-c2cc3c(c4c2OCC4)-c2cc(=O)c(C(=O)O)cn2C(C(C)C)C3)cc1` (stereo not drawn) [Example 26, 7-Isopropyl-4-(4-methoxyphenyl)-11-oxo-2,6,7,11-tetrahydro-1H-furo[2,3-h]pyrido[2,1-a]isoquinoline-10-carboxylic Acid], the IC50 in the assay with HBV DNA replication is 1.09 nM; in the assay on HBsAg secretion, 1.33 nM. The corresponding values for `CC(C)C1Cc2cc(OCCC3CC3)c3c(c2-c2cc(=O)c(C(=O)O)cn21)CC(C)(C)O3` (stereo not drawn) [Example 40, 4-(2-Cyclopropylethoxy)-7-isopropyl-2,2-dimethyl-11-oxo-2,6,7,11-tetrahydro-1H-furo[2,3-h]pyrido[2,1-a]isoquinoline-10-carboxylic Acid] are 1.45 nM and 0.54 nM.

In the case of `CC(C)C1Cc2cc(OCCc3ccccc3)c3c(c2-c2cc(=O)c(C(=O)O)cn21)CCO3` (stereo not drawn) [Example 6, 7-Isopropyl-11-oxo-4-phenylethoxy-2,6,7,11-tetrahydro-1H-furo[2,3-h]pyrido [2,1-a]isoquinoline-10-carboxylic Acid], the figures for the IC50 in the assay with HBV DNA replication and with HBsAg secretion were 0.86 nM and 1.92 nM, respectively. Take `CC(C)[C@@H]1Cc2cc(-c3cnn(C(F)F)c3)c3c(c2-c2cc(=O)c(C(=O)O)cn21)CCO3` [Example 10A, 4-(1-(Difluoromethyl)-1H-pyrazol-4-yl)-7-isopropyl-11-oxo-2,6,7,11-tetrahydro-1H-furo[2,3-h]pyrido[2,1-a]isoquinoline-10-carboxylic Acid]: the IC50 in the assay on HBsAg secretion came out at 0.54 nM. For the compound `CC(C)C1Cc2cc(-c3cnn(C(F)F)c3)c3c(c2-c2cc(=O)c(C(=O)O)cn21)CC(C)(C)O3` (stereo not drawn) [Example 41, 4-(1-(Difluoromethyl)-1H-pyrazol-4-yl)-7-isopropyl-2,2-dimethyl-11-oxo-2,6,7,11-tetrahydro-1H-furo[2,3-h]pyrido[2,1-a]isoquinoline-10-carboxylic Acid], the IC50 worked out at 2.09 nM in the assay on HBV DNA replication and 0.54 nM in the assay on HBsAg secretion.

`O=C(O)c1cn2c(cc1=O)-c1c(cc(OCCC3CC3)c3c1CCO3)CN2c1nccs1` [Example 47, 4-(2-Cyclopropylethoxy)-11-oxo-7-(thiazol-2-yl)-2,6,7,11-tetrahydro-1H-furo [2,3-h]pyrido[2,1-a]phthalazine-10-carboxylic Acid]: in the assay on HBV DNA replication, 3.31 nM corresponded to half-maximal inhibition (IC50).

In the assay on HBV DNA replication, `CC(C)C1Cc2cc(OCC3CCCC3)c3c(c2-c2cc(=O)c(C(=O)O)cn21)CCO3` (stereo not drawn) [Example 22, 4-(Cyclopentylmethoxy)-7-isopropyl-11-oxo-2,6,7,11-tetrahydro-1H-furo[2,3-h]pyrido[2,1-a]isoquinoline-10-carboxylic Acid] displayed an IC50 of 2.26 nM.

Take `CC(C)CCOc1cc2c(c3c1OCC3)-c1cc(=O)c(C(=O)O)cn1C(C(C)C)C2` (stereo not drawn) [Example 21, 4-(Isopentyloxy)-7-isopropyl-11-oxo-2,6,7,11-tetrahydro-1H-furo[2,3-h]pyrido [2,1-a]isoquinoline-10-carboxylic Acid]: in the assay on HBsAg secretion, the IC50 is 1.55 nM. With `CC(C)C1Cc2cc(OCCC(F)(F)F)c3c(c2-c2cc(=O)c(C(=O)O)cn21)CCO3` (stereo not drawn) [Example 7, 7-Isopropyl-11-oxo-4-(3,3,3-trifluoropropoxy)-2,6,7,11-tetrahydro-1H-furo [2,3-h]pyrido[2,1-a]isoquinoline-10-carboxylic Acid], in the assay on HBV DNA replication, it took 1.87 nM to reach half-maximal inhibition (IC50).
